{"source": "paper PMC12418948", "about": "“Intranasal Administration of KCNN2 Blocking Peptide Improves Deficits in Cognitive Flexibility in Mouse Model of Fetal Alcohol Spectrum Disorders” (International Journal of Neuropsychopharmacology, 2025)", "key": {"[1]": {"test_system": "older adults affected by Alzheimer disease or mild cognitive impairment", "conditions": "intranasal; older adults with Alzheimer disease or mild cognitive impairment; cited from earlier work", "from_the_text": "(§1) The potential of intranasal delivery in treating a broad spectrum of neurological disorders, especially those related to memory and cognition, is noteworthy.[28] Historically, intranasal administration has gained attention in clinical trials as an effective delivery method, especially for small molecules ..."}, "KCNN (SK) channel": {"test_system": "KCNN (SK) channel", "conditions": "cited from earlier work"}, "rat": {"test_system": "rat", "set-up": "method as in 2 sources, one per row (each row's own in cited_ref): ref 82 = [82]; PMID 15985330; doi:10.1016/j.neulet.2005.05.050; 82. Deschaux O , Bizot JC . Apamin produces selective improvements of learning in rats . Neurosci Lett. 2005; 386 : 5 – 8 . 10.1016/j.neulet.2005.05.050 15985330 ||| ref 26, 82, 83 = [26]; PMID 18561910; doi:10.1016/j.ejphar.2008.05.019; 26. Mpari B , Sreng L , Regaya I , Mourre C . Small-conductance Ca(2+)-activated K(+) channels: heterogeneous affinity in rat brain structures and cognitive modulation by specific blockers . Eur J Pha || [82]; PMID 15985330; doi:10.1016/j.neulet.2005.05.050; 82. Deschaux O , Bizot JC . Apamin produces selective improvements of learning in rats . Neurosci Lett. 2005; 386 : 5 – 8 . 10.1016/j.neulet.2005.05.050 15985330 || [83]; PMID 9148239; doi:10.1016/s0304-3940(97)13367-5; 83. Deschaux O , Bizot JC , Goyffon M . Apamin improves learning in an object recognition task in rats . Neurosci Lett. 1997; 222 : 159 – 162 . 10.1016/s0304-3940(97)13367-5 9148239", "conditions": "cited from earlier work"}, "KCNN2": {"test_system": "KCNN2", "conditions": "compared with Lei-Dab7; cited from earlier work", "from_the_text": "KCNN2 plays a key role in regulating neuronal excitability by controlling the medium afterhyperpolarization.[20] Previous studies have shown that KCNN2 blockers have therapeutic effects to improve learning and memory in several mouse and rat models of neuropsychiatric disorders associated with increased KCNN2 expression.[21–24] […] In the current study, we used another KCNN2 blocker, Lei-Dab7 (a synthetic derivative of leiurotoxin), a peptide isolated from the venom of the yellow scorpion (L. quinquestriatus hebraeus). […] We evaluated intranasal administ ... || Taken together, our findings advocate for the therapeutic potential of Lei-Dab7 or other KCNN2 blockers for FASD and possibly other neurodevelopmental diseases that similarly involve KCNN2 upregulation, such as Angelman syndrome.[21] Lei-Dab7 stands out for its high potency and specificity in blocking the KCNN2 channel. […] Despite outstanding properties, Lei-Dab7’s bioavailability, efficacy, and toxicity as a the ..."}, "[2]": {"conditions": "intranasal vs subcutaneous or intramuscular administration; cited from earlier work", "from_the_text": "as §1"}, "[3]": {"test_system": "neurodevelopmental disorders such as autism spectrum disorder", "conditions": "nasal application; cited from earlier work", "from_the_text": "as §1"}, "[4]": {"conditions": "i.p. administration, PAE mice; cited from earlier work", "from_the_text": "KCNN2 plays a key role in regulating neuronal excitability by controlling the medium afterhyperpolarization.[20] Previous studies have shown that KCNN2 blockers have therapeutic effects to improve learning and memory in several mouse and rat models of neuropsychiatric disorders associated with increased KCNN2 expression.[21–24]"}, "human KCNN2": {"target": "human KCNN2 (Homo sapiens, UniProt Q9H2S1)", "sequence (Q9H2S1 whole entry)": "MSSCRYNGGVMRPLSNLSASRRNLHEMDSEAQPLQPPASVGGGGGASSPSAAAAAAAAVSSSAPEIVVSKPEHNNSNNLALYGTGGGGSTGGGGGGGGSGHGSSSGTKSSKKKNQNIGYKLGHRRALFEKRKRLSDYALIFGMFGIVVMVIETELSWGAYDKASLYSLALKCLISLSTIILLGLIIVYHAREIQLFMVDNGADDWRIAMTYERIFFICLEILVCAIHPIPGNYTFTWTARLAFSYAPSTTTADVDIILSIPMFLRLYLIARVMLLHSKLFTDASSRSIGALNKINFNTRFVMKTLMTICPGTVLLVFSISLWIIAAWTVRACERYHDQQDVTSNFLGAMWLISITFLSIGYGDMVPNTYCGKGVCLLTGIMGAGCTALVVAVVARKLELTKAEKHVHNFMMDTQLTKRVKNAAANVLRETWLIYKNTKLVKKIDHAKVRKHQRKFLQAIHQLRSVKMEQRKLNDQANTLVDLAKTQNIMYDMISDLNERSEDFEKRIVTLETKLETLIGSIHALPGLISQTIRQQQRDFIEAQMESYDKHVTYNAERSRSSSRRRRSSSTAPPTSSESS", "test": "Thallium flux assay, KCNN2 channel block", "type": "cell-based", "conditions": "HEK293 stably expressing human KCNN2; thallium flux, FLIPR Potassium Assay Kit, FLIPR TETRA; 4 concentrations, n = 4; 0% = 1 μM A23187, 100% = 3 μM UCL1684", "experimental": "The effect of tamapin and Lei-Dab7 to block the KCNN2 channel was assessed by the thallium flux (potassium ion surrogate) assay using FLIPR Potassium Assay KIT (Molecular Devices, CA) and a FLIPR TETRA fluorescence imaging plate reader (Molecular Devices, CA). Human embryonic kidney (HEK) 293 cell line stably expressing human KCNN2 (Charles River, MA) were plated on BioCoat Poly-D-Lysine 384-well Black/Clear Plates (BD Biosciences, NJ) at 15 000 to 30 000 cells per well and incubated at 37°C overnight or until cells form near confluent monolayer. A baseline fluorescence was recorded during the pre-incubation period, followed by activation in the stimulus buffer (K^+-free buffer with 5 mM Tl^+). The effects of tamapin and Lei-Dab7 on KCNN2 to inhibit KCNN2 channel were evaluated at 4 different concentrations (n = 4) each, based on fluorescence changes due to the treatments. The signal elicited by the respective positive control agonist [1 μM A23187 (Tocris, UK)] was set to 0% inhibition, and the signal in the presence of the respective positive control antagonists [3 μM UCL1684 (Tocris, UK)] was set to 100% inhibition. The IC50 values were defined as the concentration at which the percent inhibition equals 50.\nTo determine the dose of Lei-Dab7 to be tested, we compared the effect of Lei-Dab7 and tamapin in blocking human KCNN2 expressed in HEK293 cells using a thallium-based potassium ion channel assay. […] Based on the effective dose of tamapin in mitigating motor skill–learning deficits in PAE mice (15 μg/kg body weight via i.p.)[17] and higher brain uptake of therapeutics by intranasal delivery than by i.p. delivery, we chose a dose of 3.0 μg/kg body weight to test the effect of intranasal administration of Lei-Dab7.\nSupplementary Figure 3. Concentration-response relationships of Lei-Dab7 and Tamapin on the Inhibition of KCNN2 channels. (A, B) The concentration-response relationships of Lei-Dab7 (A) and Tamapin (B) on the inhibition of KCNN2 (SK2) channels examined by the thallium flux assay are presented. […]"}, "[5]": {"conditions": "pregnant CD-1 mice, i.p. 4.0 g/kg/day 25% ethanol at E16 and E17; from 30 minutes after injection at E16 to 1 hour after injection at E17; cited from earlier work", "experimental": "All mice (CD-1) used in this study were purchased from Charles River Laboratories and were maintained in-house on a light–dark cycle (lights on 6:00 AM to 6:00 PM) at a constant temperature (22 ± 1°C). Pregnant mice received i.p. injections of 25% ethanol in PBS at 4.0 g/kg/day or PBS only as the control at embryonic day (E) 16 and E17. The dam’s blood alcohol concentration ranges from approximately 140 to 300 mg/dL (from 30 minutes after injection at E16 to 1 hour after injection at E17).[35] All procedures were approved by the institutional animal care and use committee of the Children’s Nat ..."}}, "note": "Positions of bridges follow the written chain, without caps; N, C: chain ends. Residues, ends and D or L forms follow the SMILES beside them. No end group written: not given here.", "data": [{"compound": "insulin", "values": [{"measurement": "memory effect", "setting": "[1]", "result": "improving memory"}]}, {"compound": "c1ccc2c(c1)c1cc[n+]2CCCCC[n+]2ccc(c3ccccc32)NCCCCCN1", "note": "[UCL 1848]", "values": [{"measurement": "KCNN (SK) channel blocking specificity", "setting": "KCNN (SK) channel", "result": "nonspecific KCNN (SK) channel blockers"}]}, {"compound": "apamin (CNCKAPETALCARRCQQH-NH2; disulfide 1-11, 3-15; UniProt P01500 28-45, looked up)", "values": [{"measurement": "effect on learning", "setting": "rat", "result": "promote learning"}, {"measurement": "KCNN (SK) channel blocking specificity", "setting": "KCNN (SK) channel", "result": "nonspecific KCNN (SK) channel blockers"}, {"measurement": "KCNN2 selectivity in words", "setting": "KCNN2", "result": "less selective KCNN2 blocker"}]}, {"compound": "mouse [D-Leu-4]OB3 [synthetic leptin-like peptide]", "values": [{"measurement": "brain bioavailability, intranasal vs other methods (times)", "setting": "[2]", "result": 4, "unit": "times"}]}, {"compound": "oxytocin", "values": [{"measurement": "efficacy, repeated doses", "setting": "[3]", "result": "inconsistent"}, {"measurement": "efficacy, single administration", "setting": "[3]", "result": "promising"}]}, {"compound": "CC[C@H](C)[C@@H]1NC(=O)[C@@H]2CSSC[C@H](NC(=O)[C@H](Cc3ccccc3)NC(=O)[C@H](C)N)C(=O)N[C@@H](CC(N)=O)C(=O)N[C@@H](CC(C)C)C(=O)N[C@@H](CCCNC(=N)N)C(=O)N[C@@H](CCCNC(=N)N)C(=O)N[C@H]3CSSC[C@H](NC(=O)[C@H](CCC(=O)O)NC(=O)[C@H](CCC(=O)O)NC(=O)CNC1=O)C(=O)N[C@@H](CCCCN)C(=O)N[C@H](C(=O)N[C@H](C(=O)N1CCC[C@H]1C(=O)N[C@@H](Cc1ccc(O)cc1)C(N)=O)C(C)C)CSSC[C@H](NC(=O)[C@H](CO)NC(=O)[C@H](CC(C)C)NC(=O)[C@H](CCC(=O)O)NC3=O)C(=O)N[C@@H](CCCNC(=N)N)C(=O)N[C@@H](CO)C(=O)N[C@@H](CC(C)C)C(=O)NCC(=O)N[C@@H](CC(C)C)C(=O)N[C@@H](CC(C)C)C(=O)NCC(=O)N[C@@H](CCCCN)C(=O)N2", "note": "[tamapin] (H-AFCNLRRCELSCRSLGLLGKCIGEECKCVPY-NH2; disulfide 3-21, 8-26, 12-28)", "values": [{"measurement": "crosses the blood brain barrier", "setting": "[4]", "result": "crosses the blood brain barrier"}, {"measurement": "IC50", "setting": "human KCNN2", "result": 50, "unit": "nM"}]}, {"compound": "CCO", "note": "[ethanol]", "values": [{"measurement": "dam's blood alcohol concentration", "setting": "[5]", "result": "140 to 300", "unit": "mg/dL"}]}, {"compound": "scyllatoxin (AFCNLRMCQLSCRSLGLLGKCIGDKCECVKH; UniProt P16341 1-31, looked up)", "values": [{"measurement": "KCNN (SK) channel blocking specificity", "setting": "KCNN (SK) channel", "result": "nonspecific KCNN (SK) channel blockers"}]}, {"compound": "CN1CCc2cc3c(cc2[C@H]1[C@@H]1OC(=O)c2c1ccc1c2OCO1)OCO3", "note": "[bicuculline]", "values": [{"measurement": "KCNN (SK) channel blocking specificity", "setting": "KCNN (SK) channel", "result": "nonspecific KCNN (SK) channel blockers"}]}, {"compound": "c1cc2cc(c1)C[n+]1ccc(c3ccccc31)NCc1ccc(cc1)CNc1cc[n+](c3ccccc13)C2", "note": "[UCL 1684]", "values": [{"measurement": "KCNN (SK) channel blocking specificity", "setting": "KCNN (SK) channel", "result": "nonspecific KCNN (SK) channel blockers"}]}]}
